{
  "source": "paper PMC10510102",
  "about": "“Efficient Ligand Discovery Using Sulfur(VI) Fluoride Reactive Fragments” (ACS Chemical Biology, 2023)",
  "data": [
    {"target": "T1, BCL6 (Homo sapiens, UniProt P41182, C67R/C84N/C8Q)", "T1 construct": "hBCL6-Flag-6H-Avi 3Cmut (5–129) produced as part of the GSK/GenScript collaboration; Flag (C); 6H (His6) (C); Avi (C)", "test": "Identification of site(s) of covalent modification by tandem MS", "conditions": "2 μM BCL6, 100 μM SF, 4 °C, 24 h; trypsin digest LC-MS/MS", "procedure": "The top hits from the SF screen with BCL6 represented two distinct chemotypes: meta-substituted benzamides (2f and 2g) and azetidine aryl ethers (2h and 2i). These were resynthesized and purified for follow-up studies. […] Tyr57 has previously been targeted by a BCL6 inhibitor (14, TMX-2164); however, the targeting of His115 is a novel modification; these residues are located on opposite sides of the binding site of previously reported BCL6 inhibitors (11–14) (see Figure 5b).\n7. BCL6 – site of binding studies and iterative screen\n7.1. Identification of the site(s) of covalent modification by tandem MS (BCL6)\nThe (resynthesized and purified) SF hits (2f–i) were plated into a Greiner 384 PP F-bottom plate from a 10 mM source in DMSO. Purified BCL6 diluted from original stock into a buffer made up of HEPES (pH 7.5, 25 mM) and NaCl (50 mM) in distilled MS-grade water (50 µL per well) was subsequently added across the plate. Final concentrations: 2 µM protein; 100 µM SF. The plate was sealed, centrifuged (1 min, 1000 rpm), incubated at 4 °C for 24 h, and 15 µL aliquots were subsequently removed and analyzed by intact protein LC-MS.\nThe remaining samples (1 μg) were separated by SDS-PAGE to remove excess unbound compound. Gels were stained with colloidal Comassie InstantBlue and bands corresponding to BCL6 were excised, reduced with 10 mM TCEP (65 °C, 30 mins), and alkylated with 10 mM iodoacetamide (r.t., 30 mins, dark). Samples were digested with trypsin (Promega) 1:10 E:S (37 °C, 16 h) in 100 mM ammonium bicarbonate. After removal of the supernatant, peptides were extracted using acetonitrile. Combined supernatants were concentrated in a SpeedVac centrifuge and acidified (0.1% formic acid, 0.05% trifluoroacetic acid) prior to injection into the LC-MS/MS system.\nDigested samples were injected on an Easy-nLC 1200 UHPLC system (Thermo Scientific). The nanoLC was interfaced to an Orbitrap Fusion Lumos Mass Spectrometer (Thermo Scientific). Tryptic peptides were loaded on a 2 cm × 75 µm Acclaim PepMap 100 C18 trapping column (Thermo Scientific) and separated on a 25 cm × 75 μm, 2 µm particles, PepMap C18, 2 μm particle column (Thermo Scientific) using a 50 min gradient of 2–38% acetonitrile, 0.2% formic acid and a flow of 300 nL/min. LC-MS/MS based peptide sequencing was performed by data dependent analysis (DDA). Full MS 350–1600 Da at 120,000 resolution, MS AGC target 1e6, MS Maximum IT 50 ms, followed by MS/MS using a 3 sec. cycle time, stepped collision energy mode at 25, 29 and 32 CE%, Isolation window 1.6 m/z, fixed first mass 145 m/z, 15,000 orbitrap resolution, MS/MS AGC target 1e5 and MS/MS Maximum IT 200 ms. Alternatively, samples were analyzed by Parallel Reaction Monitoring (PRM) targeting precursor ions relative to the modified peptides. […]", "values": [
      {"compound": "CN(C)C(=O)Nc1cccc(CNC(=O)Cc2ccc(S(=O)(=O)F)cc2)c1", "note": "[2f]", "site of covalent modification": "Tyr57"},
      {"compound": "CC(=O)Nc1cccc(CNC(=O)Cc2ccc(S(=O)(=O)F)cc2)c1", "note": "[2g]", "site of covalent modification": "Tyr57"},
      {"compound": "O=C(Cc1ccc(S(=O)(=O)F)cc1)N1CC(Oc2ccc(F)c(F)c2)C1", "note": "[2h]", "site of covalent modification": "His115"},
      {"compound": "NC(=O)c1ccccc1OC1CN(C(=O)Cc2ccc(S(=O)(=O)F)cc2)C1", "note": "[2i]", "site of covalent modification": "His115"}
    ]}
  ]
}
